For assay [1], the target named is T1, human H1 receptor (Homo sapiens, UniProt P35367).
T1 construct: expressed in transfected cells
In words: Histamine H1 functional antagonist assay (FLIPR): antagonist pA2. Type of assay: cell-based. Here is the method: (§1) The human H1 receptor is cloned using known procedures described in the literature [Biochem. Biophys. Res. Commun., 201(2):894 (1994)]. Chinese hamster ovary (CHO) cells stably expressing the human H1 receptor are generated according to known procedures described in the literature [Br. J. Pharmacol., 117(6):1071 (1996)].
Histamine H1 Functional Antagonist Assay: Determination of Antagonist pA2 and Duration
The histamine H1 receptor expressing CHO cells are seeded into non-coated black-walled clear bottom 96-well tissue culture plates as described above.
Following overnight culture, growth medium is removed from each well, washed with 200 μl PBS and is replaced with 50 μl loading dye (250 μM Brilliant Black, 1 μM Fluo-4 diluted in Tyrodes buffer+probenecid (145 mM NaCl, 2.5 mM KCl, 10 mM HEPES, 10 mM D-glucose, 1.2 mM MgCl2, 1.5 mM CaCl2, 2.5 mM probenecid, pH adjusted to 7.40 with NaOH 1.0 M)). Cells are incubated for 45 min at 37° C. The loading buffer is removed and the cells are washed as above, and 90 μl of Tyrodes buffer+probenecid is added to each well. 10 μl of test compound, diluted to the required concentration in Tyrodes buffer+probenecid (or 10 μl Tyrodes buffer+probenecid as a control) is added to each well and the plate is incubated for 30 min at 37° C., 5% CO2.
The plates are then placed into a FLIPR™ (Molecular Devices, UK) to monitor cell fluorescence (λex=488 nm, λEM=540 nm) in the manner described in Sullivan et al., (In: Lambert D G (ed.), Calcium Signaling Protocols, New Jersey: Humana Press, 1999, 125-136) before and after the addition of 50 μl histamine over a concentration range of 1 mM-0.1 nM. […] The antagonist pA2 is calculated using the following standard equation: pA2=log(DR−1)−log [ B] where DR=dose ratio, defined as EC50antagonist-treated/EC50control and [B]=concentration of antagonist.

For assay [2], the target named is T1, human H1 receptor. In words: Histamine H1 functional antagonist assay (FLIPR): functional pKi. The settings on record: CHO cells expressing human H1 receptor, histamine EC80, read-out: average pKi (pKb) at H1 (converted). Type of assay: cell-based. As for the experimental part:
as §1
10 μl of test compound, diluted to the required concentration in Tyrodes buffer+probenecid (or 10 μl Tyrodes buffer+probenecid as a control) is added to each well and the plate is incubated for 30 min at 37° C., 5% CO2.

Assay [3] has as its system histamine-induced nasal congestion. In words: Intranasal challenge method: whole body plethysmography, histamine-induced nasal congestion. Format: in vivo, Dunkin-Hartley guinea pigs. The following applies: for inhibition of response to histamine challenge: dosed intranasally at 1 mg/ml. As for the experimental part:
Intranasal Challenge Method: Whole Body Plethysmography
Female Dunkin-Hartley guinea pigs 150-250 g are sensitised twice daily for 5 days (week 1) with ovalbumin (OVA) and aluminium hydroxide (Al(OH)3 or Alum) in physiological saline, 25 μl/nostril. Solution is made up at 20 μg/ml OVA, 180 mg/ml Alum. During weeks 2 and 3 animals receive 25 μl/nostril of OVA (5 mg/ml) once daily. During Week 4 guinea pigs will be entered into study but are continually sensitized as per weeks 2 and 3 until the day before dosing with compound or vehicle.
(b) Compound Vehicle Pretreatment
Pretreatment with test compound is performed at various times prior to histamine challenge. Efficacy dose-response curves are determined 1 hr and/or 3 hr after dosing whereas duration of action may be studied up to 7 days post dose (for example, at 24 hours). Test compounds are formulated as solutions in 0.9% sterile saline or suspensions in 0.9% sterile saline/tween80.
Guinea pigs were anaesthetised with isoflurane (5%, 2-31/min O2), placed in a supine position, and 25 μl of test compound or vehicle dosed into each nostril using a Gilson pipette. After dosing, animals remain supine for at least 30 seconds (e.g. 60 seconds) during recovery from anaesthesia.
(c) Histamine Challenge Protocol
G. & Gelfand, E. W. (1997), Noninvasive measurement of airway responsiveness in allergic mice using barometric plethysmography., Am. J. Respir. Crit. Care Med., 156, 766-775.
After the stipulated pre-dose time has been reached, guinea pigs are re-anaesthetised with isoflurane and dosed with either 10 mM or 15 mM histamine or phosphate-buffered saline (PBS), (25 μl per nostril). […] These recordings are summed to give a cumulative AUC over 40 mins post histamine challenge for each animal. Data are analysed using ANOVA with post-hoc Fishers LSD test (general linear models, Statistica®) and finally Hochberg adjustment. Inhibition of histamine-induced congestion is determined by statistically significant differences between the mean responses of compound pre-treated groups compared to the vehicle pre-treated, histamine-challenged group.

Assay [4] addresses T1, human H1 receptor. In words: Histamine H1 functional antagonist assay: antagonist duration after washout. Format: cell-based. The following applies: at one or more time points. As for the experimental part: The human H1 receptor is cloned using known procedures described in the literature [Biochem. Biophys. Res. Commun., 201(2):894 (1994)]. Chinese hamster ovary (CHO) cells stably expressing the human H1 receptor are generated according to known procedures described in the literature [Br. J. Pharmacol., 117(6):1071 (1996)]. […] Following the 30 min antagonist incubation period, the cells are washed two or three times with 200 μl of PBS and then 100 μl Tyrodes buffer is added to each well to initiate antagonist dissociation. […] After this period, the cells are challenged with histamine in the FLIPR™ as described above. […] The decrease in receptor occupancy over time approximates to a straight line and is analysed by linear regression. The slope of this straight line fit is used as an index of the dissociation rate of the antagonist. The dose ratios for antagonist treated cells and for antagonist treated and washed cells at each time point are used to calculate a relative dose ratio (rel DR) which is also used as an index of antagonist duration. Antagonists with long duration of action produce rel DR values close to 1, and antagonists with short duration of action produce rel DR values that approaches the dose ratio value obtained for antagonist treatment alone.

Where [5] appears, read: CHO cells expressing H1 receptor, FLIPR, histamine concentration response curves, read-out: average pA2 (converted).

Counter-ions that a name gives are not always drawn. Like-named read-outs stand apart in the source and are kept apart here.

T1 sequence (P35367 whole entry): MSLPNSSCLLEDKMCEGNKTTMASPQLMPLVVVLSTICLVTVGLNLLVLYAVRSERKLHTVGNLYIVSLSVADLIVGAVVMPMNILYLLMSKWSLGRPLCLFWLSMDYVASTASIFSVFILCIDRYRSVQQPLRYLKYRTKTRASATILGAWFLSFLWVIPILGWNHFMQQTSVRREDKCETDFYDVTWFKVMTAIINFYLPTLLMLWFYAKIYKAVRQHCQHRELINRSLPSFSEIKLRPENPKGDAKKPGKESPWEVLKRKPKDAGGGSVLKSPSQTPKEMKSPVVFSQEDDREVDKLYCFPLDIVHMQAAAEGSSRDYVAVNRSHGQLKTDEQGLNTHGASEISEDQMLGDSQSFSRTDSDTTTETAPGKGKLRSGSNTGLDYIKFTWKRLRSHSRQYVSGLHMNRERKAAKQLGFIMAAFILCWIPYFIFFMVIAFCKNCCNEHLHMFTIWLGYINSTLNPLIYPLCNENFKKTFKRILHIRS

Turning to `CCCCc1cc(OC2CCN(CCS(=O)(=O)C(C)(C)C)CC2)c2ncccc2c1` [Example 2, 6-Butyl-8-[(1-{2-[(1,1-dimethylethyl)sulfonyl]ethyl}-4-piperidinyl)oxy]quinoline, dihydrochloride salt], at human H1 receptor [1] (setting [5]), the Kb was under 1 nM. As to `CCCCc1cc(OC2CCN(CCCS(C)(=O)=O)CC2)c2ncccc2c1` [Example 3, 6-Butyl-8-({1-[3-(methylsulfonyl)propyl]-4-piperidinyl}oxy)quinoline, dihydrochloride salt], the Kb at human H1 receptor [1] (setting [5]) is under 10 nM. For `CCCCc1cc(OC2CCN(CCCS(=O)(=O)C3CCCC3)CC2)c2ncccc2c1` [Example 8, 6-Butyl-8-({1-[3-(cyclopentylsulfonyl)propyl]-4-piperidinyl}oxy)quinoline, formate salt (1:1)], the Kb at human H1 receptor [1] was under 100 nM. `CCCCCc1cc(OC2CCN(CCCS(=O)(=O)CC)CC2)c2ncccc2c1` [Example 11, 8-({1-[3-(Ethylsulfonyl)propyl]-4-piperidinyl}oxy)-6-pentylquinoline, dihydrochloride salt]: the Kb on human H1 receptor [1] (setting [5]) was under 1 nM.

Take `CCCCc1cc(O[C@@H]2CCN(CCCS(=O)(=O)C(C)(C)C)C2)c2ncccc2c1` [Example 12, 6-Butyl-8-[((3R)-1-{3-[(1,1-dimethylethyl)sulfonyl]propyl}-3-pyrrolidinyl)oxy]quinoline, dihydrochloride salt]: the Kb at human H1 receptor [1] (setting [5]) was under 100 nM. As to `CCCCc1cc(OC2CCN(C3CCS(=O)(=O)C3)CC2)c2ncccc2c1` (stereo not drawn) [Example 13, 6-Butyl-8-{[1-(1,1-dioxidotetrahydro-3-thienyl)-4-piperidinyl]oxy}quinoline], the Kb at human H1 receptor [1] (setting [5]) was under 100 nM. For the same molecule, the Ki at human H1 receptor [2] was under 100 nM. With `CCCCc1cc(OC2CCN(CCNS(=O)(=O)CC(C)C)CC2)c2ncccc2c1` [Example 15, N-(2-{4-[(6-Butyl-8-quinolinyl)oxy]-1-piperidinyl}ethyl)-2-methyl-1-propanesulfonamide, dihydrochloride salt], on human H1 receptor [1] (setting [5]), the Kb is under 10 nM. Besides, the Ki at human H1 receptor [2] is under 100 nM. On the same counts, the results for `CCCCc1cc(OC2CCN(CCNS(=O)(=O)c3ccccc3)CC2)c2ncccc2c1` [Example 16, N-(2-{4-[(6-Butyl-8-quinolinyl)oxy]-1-piperidinyl}ethyl)benzenesulfonamide, dihydrochloride salt] are under 10 nM and under 100 nM. `CCCCc1cc(OC2CCN(CCCNS(=O)(=O)CCC)CC2)c2ncccc2c1` [Example 18, N-(3-{4-[(6-Butyl-8-quinolinyl)oxy]-1-piperidinyl}propyl)-1-propanesulfonamide, dihydrochloride salt]: the Kb on human H1 receptor [1] (setting [5]) was under 1 nM. In the case of `CCCCc1cc(OC2CCN(CCCNS(=O)(=O)C(C)C)CC2)c2ncccc2c1` [Example 19, N-(3-{4-[(6-Butyl-8-quinolinyl)oxy]-1-piperidinyl}propyl)-2-propanesulfonamide, dihydrochloride salt], the Kb at human H1 receptor [1] (setting [5]) was under 1 nM. With `CCCCc1cc(OC2CCN(CCCCNS(=O)(=O)CC)CC2)c2ncccc2c1.Cl.Cl` [Example 23B, N-(4-{4-[(6-Butyl-8-quinolinyl)oxy]-1-piperidinyl}butyl)ethanesulfonamide, dihydrochloride salt], the “inhibition of response to histamine challenge” value in assay [3] (3 hr before histamine challenge) and in assay [3] (24 hr before histamine challenge) was “significantly (p<0.05) inhibited the response” in each case. In the case of `CCCCc1cc(OC2CCN(CCCCNS(=O)(=O)CC(C)C)CC2)c2ncccc2c1` [Example 26, N-(4-{4-[(6-Butyl-8-quinolinyl)oxy]-1-piperidinyl}butyl)-2-methyl-1-propanesulfonamide, dihydrochloride salt], the “duration of action compared with azelastine” value on human H1 receptor [4] is on record as “longer duration of action than azelastine”. As to `CCCCc1cc(OC2CCN(CCCCNS(=O)(=O)CC3CCCCC3)CC2)c2ncccc2c1` [Example 28, N-(4-{4-[(6-Butyl-8-quinolinyl)oxy]-1-piperidinyl}butyl)-1-cyclohexyl methane sulfonamide, dihydrochloride salt], the Kb at human H1 receptor [1] (setting [5]) is under 10 nM.

Take `CCCCc1cc(OC2CCN(CCCCCNS(C)(=O)=O)CC2)c2ncccc2c1` [Example 31, N-(5-{4-[(6-Butyl-8-quinolinyl)oxy]-1-piperidinyl}pentyl)methanesulfonamide, dihydrochloride salt]: the Kb at human H1 receptor [1] (setting [5]) is under 1 nM. On to `CCCCc1cc(OC2CCN(CCCCCNS(=O)(=O)CC)CC2)c2ncccc2c1` [Example 32, N-(5-{4-[(6-Butyl-8-quinolinyl)oxy]-1-piperidinyl}pentyl)ethanesulfonamide, dihydrochloride salt], for which, at human H1 receptor [1] (setting [5]), the Kb is under 1 nM.

On to `CCCCc1cc(OC2CCN(CCCNC(=O)NCCC)CC2)c2ncccc2c1` [Example 36, N-(3-{4-[(6-Butyl-8-quinolinyl)oxy]-1-piperidinyl}propyl)-N′-propylurea, dihydrochloride salt], for which the Kb at human H1 receptor [1] is under 1 nM.

As for `CN1CCCC(n2nc(Cc3ccc(Cl)cc3)c3ccccc3c2=O)CC1` (stereo not drawn) [azelastine, reference compound], the “duration of action in intranasal challenge model” value in assay [3] (administered at the same concentration (1 mg/ml intranasally)) was “failed to show a similar duration of action”.

(Values after US7884114B2, “Compounds” (Glaxo Group Limited, priority 2007, dated 2011).)
